We go through one molecule from PMC4649711, “In1-ghrelin splicing variant is overexpressed in pituitary adenomas and increases their aggressive features” (Scientific Reports, 2015).

Where “and” joins values, the source holds several entries; their conditions need not be identical. Equal values may be shown once. Entries after “also recorded” stand apart in the source; their conditions may differ.

For assay [1], the system named is p-ERK1/2. Kind of assay: ERK1/2 phosphorylation by western blot in GH-omas. In kind it is cell-based, human. As to conditions: 100 nM, 8 minutes, p-ERK1/2/total ERK1/2 vs vehicle (100%), n = 4. The method, then:
(§1) Pituitary adenoma specimens were dispersed into single cells by enzymatic and mechanical disruption and cultured onto tissue culture plates in serum containing medium, as previously described. Briefly, pituitary samples were resected by endoscopic transsphenoidal surgery and transferred to sterile cold (4°C) culture medium (S-MEM, Gibco, Madrid, Spain) supplemented with 0.1% BSA, 0.01% L-glutamine, 1% antibiotic-antimycotic solution, and 2.5% HEPES. Samples were minced under sterile conditions into 1–2 mm^3 pieces. Some pieces were stored at −80°C for posterior RNA isolation and, when possible, the remaining tissue samples were washed and incubated in 30 mL S-MEM medium supplemented 0.3% trypsin (Beckson, Dickinson and Company, Sparks, MD, USA) in a spinner flask (Bellco Glass, Vineland, NJ, USA) for 2 h of gentle shaking at 37°C and then, incubation was continued for another 5 min in presence of 1 mg of DNAse I (Roche, Mannheim, Germany). Dispersed cells were decanted by centrifugation and then, by repeated aspiration into a smoothtipped glass Pasteur pipette. Cells suspensions were washed once in 4.5 g/L glucose containing DMEM medium (Gibco, Madrid, Spain) supplemented with 0.1% BSA, 0.01% L-glutamine, 1% antibiotic-antimycotic solution, and 2.5% HEPES. […]

Assay [2] has as its system AtT-20 cell line. Description: cell viability of AtT-20 cell line. In kind it is cell-based, mouse. As to conditions: alamar-blue, 3–5 independent experiments, IGF-1 and Paclitaxel as controls. The method, then:
The mouse corticotroph pituitary derived cell line AtT-20/D16v-F2 (ATCC® CRL-1795) was cultured and maintained in Dulbecco's Modified Eagle's Medium (DMEM) complemented with 10% FBS, 100 U/ml penicillin/streptomycin, 0.024 M of 2-(4(2-hydroxyethyl)-1-piperazine)-ethane sulfonic acid (HEPES), and maintained at 37°C and 5% CO2, under sterile conditions. CHO-K1 cell line(ATCC® CCL-61) expressing recombinant human GHSR1a (GenBank accession number U60179) or GHSR1b (GenBank accession number U60181) were cultured and maintained in Ham's F12 media (Corning #10-080-CV) supplemented with 10% FBS, 2 mM L-Glutamine and 0.4 mg/mL Geneticin.
As previously reported, cell viability was estimated using alamar-blue reagent (10,000 cells/well-plate; Biosource International, Camarillo, CA, USA)[30][50][52]. Briefly, cells were serum-starved for 12–16 h before the measurements and treated with serum-free medium containing 10% alamar-blue for 3 h. Reduction of alamar-blue reagent was quantified exciting at 560 nm and reading at 590 nm using the FlexStation III system (Molecular Devices, Sunnyvale, CA, USA). Subsequently, media was replaced by serum-containing alamar-blue free medium and incubated for additional 24–72 h, measuring the alamar-blue reduction every 24 h. […]
A general note: Resazurin is reduced to fluorescent resorufin, in cell work by metabolically active cells.

Assay [3] has as its system ACTH-omas (tumoral pituitary cells). Description: free cytosolic calcium kinetics ([Ca^2+]i), ACTH-oma cells. Format: cell-based, human. The method, then:
as §1, with “pipette.” for “pipette. Cells suspensions were washed once in 4.5 g/L glucose containing DMEM medium (Gibco, Madrid, Spain) supplemented with 0.1% BSA, 0.01% L-glutamine, 1% antibiotic-antimycotic solution, and 2.5% HEPES.”
As previously reported, changes in [Ca^2+]i in single cells were measured using fura-2AM (50,000 cells/coverslip; Molecular Probes, Eugene, OR)[23][30]. […] Cells were examined for changes in [Ca^2+]i after the appropriate treatment (native ghrelin, In1-19 or In1-40) using a 40× objective with Immersion Oil Type NF (Nikon, Tokyo, Japan) while exposed to alternating 340–380 nm light beams, and the intensity of light emission at 505 nm was measured every 5 seconds using MetaFluor Software (Imaging Corp., West Chester, PA, USA). […] Changes in [Ca^2+]i in CHO-K1 cell line expressing recombinant GHSR1a or GHSR1b receptor were measured using Calcium 4 Explorer Kit (Molecular Devices, Sunnyvale, CA, USA). […] Fluorescent signals were then monitored using the FLIPR Tetra (Molecular Devices, Sunnyvale, CA, USA) during which cells were stimulated with compounds. Dose-response curves were analyzed using GraphPad Prism v5.04 (La Jolla, CA, USA).

Assay [4] relates to NFPAs. Kind of assay: cell viability of NFPA primary cultures, peptide treatment. Format: cell-based, human. As to conditions: 100 nM, alamar-blue, n = 3–15. The method, then: as §1, with “pipette.” for “pipette. Cells suspensions were washed once in 4.5 g/L glucose containing DMEM medium (Gibco, Madrid, Spain) supplemented with 0.1% BSA, 0.01% L-glutamine, 1% antibiotic-antimycotic solution, and 2.5% HEPES.”
As previously reported, cell viability was estimated using alamar-blue reagent (10,000 cells/well-plate; Biosource International, Camarillo, CA, USA)[30][50][52]. […] Reduction of alamar-blue reagent was quantified exciting at 560 nm and reading at 590 nm using the FlexStation III system (Molecular Devices, Sunnyvale, CA, USA). […]

In assay [5] the test system is rat pituitary somatotrope cell lines. Also on record: method as in PMID 15296479. The settings on record: cited from earlier work.

For `CCCCCCCC(=O)OC[C@H](NC(=O)[C@H](CO)NC(=O)CN)C(=O)N[C@@H](Cc1ccccc1)C(=O)N[C@@H](CC(C)C)C(=O)N[C@@H](CO)C(=O)N1CCC[C@H]1C(=O)N[C@@H](CCC(=O)O)C(=O)N[C@@H](Cc1c[nH]cn1)C(=O)N[C@@H](CCC(N)=O)C(=O)N[C@@H](CCCNC(=N)N)C(=O)N[C@H](C(=O)N[C@@H](CCC(N)=O)C(=O)N[C@@H](CCC(N)=O)C(=O)N[C@@H](CCCNC(=N)N)C(=O)N[C@@H](CCCCN)C(=O)N[C@@H](CCC(=O)O)C(=O)N[C@@H](CO)C(=O)N[C@@H](CCCCN)C(=O)N[C@@H](CCCCN)C(=O)N1CCC[C@H]1C(=O)N1CCC[C@H]1C(=O)N[C@@H](C)C(=O)N[C@@H](CCCCN)C(=O)N[C@@H](CC(C)C)C(=O)N[C@@H](CCC(N)=O)C(=O)N1CCC[C@H]1C(=O)N[C@@H](CCCNC(=N)N)C(=O)O)C(C)C` [AG], the p-ERK1/2 levels result in assay [1] is on record as “clear increase; also recorded: increased both, p-ERK1/2 as well as p-Akt, levels”. The cell viability entry in assay [2] is recorded as “did not alter cell viability”; in assay [4] (24 h), “reaching significant levels”; in assay [4] (time not specified in text (24-, 48- and/or 72-h)), “modest but consistent increments in cell viability; also recorded: increased NFPA cells viability”. Moreover, in assay [3] (fura-2AM), the “[Ca^2+]i response (in words)” value is “doubling the [Ca^2+]i levels”. The “% cell resp.” value in assay [3] (proportion of responsive cells, fura-2AM single-cell imaging) was 74% and 74.1%. In assay [3] (responsive/tested samples, fura-2AM, 742 / 230 / 143 cells analyzed for AG / In1-19 / In1-40, peptides 100 nM (abstract)), the “# samples” value is listed as 9/9. Also, the cell proliferation result in assay [5] was “can stimulate cell proliferation”.
